In brackets after ≈: the same amount, converted by molar mass.
What was measured:
[1] = system: S. lutea; experiment: S. lutea bacterial inhibition (MIC, broth dilution); format: cell-based; conditions: Micrococcus luteus; 37°, 16-18 hours
Procedure: The assay for S. lutea inhibition was as follows. Water-soluble preparations were dissolved in brain heart infusion broth (Difco) to 1 mg./ml. Water-insoluble preparations were dissolved (or suspended) in dimethylformamide to 10 mg./ml. and diluted with brain heart broth to 1 mg./ml. Two-fold serial dilutions were made with broth starting with 1 mg./ml. with final volumes of 01. ml. per dilution. Overnight bacterial cultures were diluted 1:20,000 with brain heart and 0.1 ml. of diluted culture was added to each dilution of antibiotic (final total volume was 0.2 ml.). This was all done in plastic microtest plates (Microtest II Tissue Culture Plate, Bioquest). The plates were incubated at 37° for 16-18 hours and the minimum inhibitory concentrations (MIC) were recorded as the smallest concentration in which no visible growth occurred.

[2] = system: B. subtilis; experiment: B. subtilis bacterial inhibition (paper disc, agar plate); conditions: Bacillus subtilis, read-out: Zone (mm.) inhibition
Procedure: The assay for B. subtilis bacterial inhibition was obtained on plates with B. subtilis UC 564 spores in agar with the following composition per liter:
After autoclaving, 10 ml. of 20% glucose was added. The seeding rate was approximately 10^9 spores per liter. Test solutions were applied to 1/2-inch paper discs (Schleicher & Schuell 740E) with 0.08 ml. per disc.

[3] = system: reverse transcriptase (RNA-directed DNA polymerase); experiment: Reverse transcriptase (RNA-directed DNA polymerase) inhibition; format: biochemical; conditions: concentration not given
Description: The assay and work-up conditions for reverse transcriptase analysis were essentially those described by Brockman, et al., (Nature, 230, 249 (1971)), except for eliminating the phosphate from the washing solution (10% trichloroacetic acid).

[4] = target: E. coli RNA polymerase (Escherichia coli, UniProt P0A8V2); experiment: Bacterial RNA polymerase inhibition; format: biochemical
E. coli RNA polymerase, sequence (P0A8V2 whole entry): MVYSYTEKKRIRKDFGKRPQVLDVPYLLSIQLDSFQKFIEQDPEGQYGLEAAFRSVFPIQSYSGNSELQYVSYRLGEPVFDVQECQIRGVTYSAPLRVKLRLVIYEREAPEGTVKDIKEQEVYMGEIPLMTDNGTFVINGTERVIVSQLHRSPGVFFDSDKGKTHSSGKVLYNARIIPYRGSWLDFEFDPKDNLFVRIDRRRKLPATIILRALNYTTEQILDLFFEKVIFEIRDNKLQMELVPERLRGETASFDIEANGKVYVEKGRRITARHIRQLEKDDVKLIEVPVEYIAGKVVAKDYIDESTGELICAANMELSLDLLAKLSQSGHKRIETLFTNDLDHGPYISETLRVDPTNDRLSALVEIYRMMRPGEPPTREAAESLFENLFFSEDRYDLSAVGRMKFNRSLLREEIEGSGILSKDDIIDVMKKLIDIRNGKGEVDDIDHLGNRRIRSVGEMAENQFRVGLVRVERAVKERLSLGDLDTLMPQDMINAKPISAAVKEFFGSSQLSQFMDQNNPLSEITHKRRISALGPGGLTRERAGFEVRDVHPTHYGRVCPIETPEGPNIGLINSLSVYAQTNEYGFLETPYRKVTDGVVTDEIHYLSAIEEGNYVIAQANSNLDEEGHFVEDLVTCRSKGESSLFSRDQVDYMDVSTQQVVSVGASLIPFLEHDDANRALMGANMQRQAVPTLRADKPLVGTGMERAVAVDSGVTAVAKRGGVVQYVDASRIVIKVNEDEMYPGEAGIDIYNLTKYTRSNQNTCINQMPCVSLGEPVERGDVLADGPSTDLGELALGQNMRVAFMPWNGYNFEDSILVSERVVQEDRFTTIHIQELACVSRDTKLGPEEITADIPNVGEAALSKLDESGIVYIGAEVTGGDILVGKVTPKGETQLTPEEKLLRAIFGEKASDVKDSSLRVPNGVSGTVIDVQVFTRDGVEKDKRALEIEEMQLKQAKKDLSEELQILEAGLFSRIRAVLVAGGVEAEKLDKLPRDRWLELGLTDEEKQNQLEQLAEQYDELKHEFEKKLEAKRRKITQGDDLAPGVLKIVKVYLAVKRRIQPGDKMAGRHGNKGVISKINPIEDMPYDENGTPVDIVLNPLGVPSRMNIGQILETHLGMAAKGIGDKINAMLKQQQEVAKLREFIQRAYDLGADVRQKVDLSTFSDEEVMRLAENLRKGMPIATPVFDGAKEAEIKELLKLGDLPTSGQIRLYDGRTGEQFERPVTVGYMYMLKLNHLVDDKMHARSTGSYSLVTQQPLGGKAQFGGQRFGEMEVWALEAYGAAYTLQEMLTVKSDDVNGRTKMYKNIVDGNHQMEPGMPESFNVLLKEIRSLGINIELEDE
E. coli RNA polymerase, sequence (P0A8T7 whole entry partner): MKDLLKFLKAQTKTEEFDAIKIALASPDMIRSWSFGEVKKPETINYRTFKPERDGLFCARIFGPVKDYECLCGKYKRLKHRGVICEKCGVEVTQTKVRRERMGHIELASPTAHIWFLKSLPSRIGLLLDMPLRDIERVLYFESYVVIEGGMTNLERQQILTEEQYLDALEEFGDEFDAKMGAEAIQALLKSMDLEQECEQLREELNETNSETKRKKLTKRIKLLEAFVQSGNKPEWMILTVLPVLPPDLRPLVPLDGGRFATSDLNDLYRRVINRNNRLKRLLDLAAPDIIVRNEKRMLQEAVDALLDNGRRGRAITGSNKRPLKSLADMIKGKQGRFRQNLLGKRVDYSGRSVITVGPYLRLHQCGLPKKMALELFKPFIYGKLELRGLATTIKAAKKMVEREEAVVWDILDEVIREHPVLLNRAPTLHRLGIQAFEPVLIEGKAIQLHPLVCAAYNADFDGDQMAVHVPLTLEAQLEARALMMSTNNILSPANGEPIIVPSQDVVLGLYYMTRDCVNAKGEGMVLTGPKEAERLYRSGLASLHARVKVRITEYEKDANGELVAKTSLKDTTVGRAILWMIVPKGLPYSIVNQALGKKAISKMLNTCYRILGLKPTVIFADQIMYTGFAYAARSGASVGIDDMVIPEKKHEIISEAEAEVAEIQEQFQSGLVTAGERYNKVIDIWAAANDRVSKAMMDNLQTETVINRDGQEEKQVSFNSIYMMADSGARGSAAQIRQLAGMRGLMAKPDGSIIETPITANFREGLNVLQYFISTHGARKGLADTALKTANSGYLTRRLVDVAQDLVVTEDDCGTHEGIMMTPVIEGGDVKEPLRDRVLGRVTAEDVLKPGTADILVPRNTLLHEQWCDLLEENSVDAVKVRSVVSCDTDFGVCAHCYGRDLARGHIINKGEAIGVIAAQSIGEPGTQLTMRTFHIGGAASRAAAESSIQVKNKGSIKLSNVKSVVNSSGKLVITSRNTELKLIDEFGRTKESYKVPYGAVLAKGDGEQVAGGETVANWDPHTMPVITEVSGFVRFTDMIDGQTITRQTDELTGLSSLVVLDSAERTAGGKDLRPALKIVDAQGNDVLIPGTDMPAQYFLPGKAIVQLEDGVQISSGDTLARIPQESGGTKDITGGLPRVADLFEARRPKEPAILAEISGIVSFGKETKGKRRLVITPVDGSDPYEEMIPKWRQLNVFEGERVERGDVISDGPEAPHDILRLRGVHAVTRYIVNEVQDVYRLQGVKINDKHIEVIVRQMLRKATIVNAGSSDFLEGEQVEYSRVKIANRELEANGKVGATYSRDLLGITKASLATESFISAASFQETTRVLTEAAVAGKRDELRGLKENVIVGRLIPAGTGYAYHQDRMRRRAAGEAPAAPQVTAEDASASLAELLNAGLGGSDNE
E. coli RNA polymerase, sequence (P0A7Z4 whole entry partner): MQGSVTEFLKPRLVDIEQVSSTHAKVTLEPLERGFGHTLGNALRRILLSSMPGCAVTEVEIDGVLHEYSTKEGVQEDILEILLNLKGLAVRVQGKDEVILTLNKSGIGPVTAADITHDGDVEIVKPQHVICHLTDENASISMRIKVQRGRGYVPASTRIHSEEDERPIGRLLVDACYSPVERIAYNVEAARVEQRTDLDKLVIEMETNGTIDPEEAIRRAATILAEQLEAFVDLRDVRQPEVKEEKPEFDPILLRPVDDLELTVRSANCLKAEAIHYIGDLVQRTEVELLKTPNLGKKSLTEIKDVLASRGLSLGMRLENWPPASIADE
E. coli RNA polymerase, sequence (P0A800 2-91 partner limits assumed): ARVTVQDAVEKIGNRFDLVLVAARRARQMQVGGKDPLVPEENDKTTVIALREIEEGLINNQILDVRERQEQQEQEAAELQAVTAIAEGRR
Procedure: The assay for bacterial RNA polymerase followed the procedure of Reusser (J. Bacterial., 105, 580 (1971)). Assay mixtures were prepared containing in a total volume of 0.25 ml.: Tris-hydrochloride buffer, pH 7.9, 5 μmoles; MgCl2, 1 μmole; mercaptoethanol, 3 μmoles; MnCl2, 0.25 μmole; guanosine triphosphate, cytidine triphosphate, uridine triphosphate, 0.1 μmole each; adenosine triphosphate 8-14C, 0.1 μmole containing 0.05 μCi; dAT, 0.2 units; polymerase, ~35 μg. The reaction mixtures were incubated at 30° C for 15 min.

[5] = system: DNA-directed DNA polymerase; experiment: DNA-directed DNA polymerase inhibition; format: biochemical; conditions: concentration not given
Procedure: The assay and work-up conditions for DNA polymerase were essentially those described by Magee (Virology, 17, 604 (1962)). The reaction mixture contained […]: potassium phosphate (pH 7.4), 15; EDTA, 2; ATP, 0.05; Mg^++, 2.5; triphosphates of CdR, deoxyguanosine, and AdR, 0.01 each; TdR triphosphate-^3 H, 0.01 (100 mCi/mmol.); DNase-treated E. coli DNA, 0.2 mg.; and cell sonicate, 0.2 mg. protein in a total volume of 0.5 ml. After incubation at 37° C for up to 60 minutes with continual gentle shaking, the reactions were stopped by the addition of carrier DNA […] and PCA (to 0.5 N) containing 2% Celite. The pellet was washed with PCA, dissolved in 1 N NaOH, reprecipitated and washed with PCA, extracted with 0.15 ml. 0.5 N PCA (70°) for 20 minutes, and counted in 12 ml. of Diotol.

[6] = system: AKR cells; experiment: AKR growth inhibition (AKR cells in culture); format: cell-based; conditions: 37° C, 3 days, concentration not given
Procedure: The assay for inhibition of AKR cells in culture was as follows. Four ml. of cells (ca. 1×10^4 cells/ml.) were pipetted into sterilized plastic culture tubes with screw caps (16×125 mm.; Falcon Plastics, Oxnard, California). The experiment was initiated by adding 1.0 ml. of medium or drug at different concentrations and incubating at 37° C for 3 days. Cell growth was determined twice a day for 3 days. The percent inhibition was calculated from the controls (no drug).

## COC(=O)C1C(OC(C)=O)C(C)C(O)OC1C(C)C(O)C(C)(O)C=CC=C(C)C(=O)Nc1c(C)c(OC(C)=O)c2c(c1O)C(=O)C(C)=C1OCOC(C(C)=CC(C)=O)=C12 (centres unmarked) [Streptoval A]
[1]
  MIC: 80 µg/mL (≈ 96.9 µM)
[2]
  zone of inhibition at 250 µM: 17 mm
[3]
  % inhibition: 100.0%
[4]; 0.1 μmole/ml.
  % inhibition: 35%

## CC(=O)C=C(C)C1=C2C(=C(C)C(=O)c3c(O)c(NC(=O)C(C)=CC=CC(C)(O)C4OC(=O)C5C(O)C(C)C(O)OC5C4C)c(C)c(OC(C)=O)c32)OCO1 (centres unmarked) [Streptoval F]
[3]
  % inhibition: 8.3%

## COC(=O)C1C(OC(C)=O)C(C)C(OC(C)=O)C(C)(O)C=CC=C(C)C(=O)Nc2c(C)c(OC(C)=O)c3c(c2O)C(=O)C(C)=C2OCOC(=C23)C(C)=CC(C)(O)C(OC(C)=O)C(C)C1OC(C)=O (centres unmarked) [Streptovaricin A Triacetate]
[3]
  % inhibition: 76.0%

## COC(=O)C1C(O)C(C)C(O)OC1C(C)C(O)C(C)C=CC=C(C)C(=O)Nc1c(C)c(OC(C)=O)c2c(c1O)C(=O)C(C)=C1OCOC(C(C)=CC(C)=O)=C12 (centres unmarked) [Streptoval C]
[5]
  % inhibition: 9.2%
[2]
  zone of inhibition at 250 µM: 0 mm
[3]
  % inhibition: 84.0%
[6]
  % inhibition: 2.1%

## COC(=O)C1C(O)C(C)C(O)OC1C(C)C(=O)C(C)C=CC=C(C)C(=O)Nc1c(C)c(OC(C)=O)c2c(c1O)C(=O)C(C)=C1OCOC(C(C)=CC(C)=O)=C12 (centres unmarked) [Streptoval E]
[1]
  MIC: 75 µg/mL (≈ 97.9 µM)
[2]
  zone of inhibition at 250 µM: 0 mm
[3]
  % inhibition: 95.7%
[4]; 0.1 μmole/ml.
  % inhibition: 7%

## COC(=O)C(C(O)C(C)C=O)C(O)C(C)C(O)C(C)(O)C=C(C)C1=C2C(=C(C)C(=O)c3c(O)c(NC(=O)C(C)=CC=CC(C)=O)c(C)c(OC(C)=O)c32)OCO1 (centres unmarked) [Isostreptoval G]
[4]; 0.1 μmole/ml.
  % inhibition: 52%

## CC(=O)C=CC=C(C)C(=O)Nc1c(C)c(OC(C)=O)c2c(c1O)C(=O)C(C)=C1OCOC(C(C)=CC(C)=O)=C12 [Prestreptovarone]
[5]
  % inhibition: 35.4%
[3]
  % inhibition: 60.1%
[4]; 0.1 μmole/ml.
  % inhibition: 0%

## COC(=O)C(C(OC(C)=O)C(C)C=O)C(OC(C)=O)C(C)C(OC(C)=O)C(C)C=CC=C(C)C(=O)Nc1c(C)c(OC(C)=O)c2c(c1O)C(=O)C(C)=C1OCOC(C(C)=CC(C)=O)=C12 (centres unmarked) [Streptoval C Triacetate-B]
[3]
  % inhibition: 97.3%

## CC(=O)C=C(C)C1=C2C(=C(C)C(=O)c3c(O)c(NC(=O)C(C)=O)c(C)c(OC(C)=O)c32)OCO1 [Streptovarone]
[5]
  % inhibition: 12.2%
[2]
  zone of inhibition at 250 µM: 0 mm
[3]
  % inhibition: 59.4%
[4]; 0.1 μmole/ml.
  % inhibition: 0%
[6]
  % inhibition: 0.4%

## COC(=O)C1C(OC(C)=O)C(C)C(OC(C)=O)OC1C(C)C(OC(C)=O)C(C)C=CC=C(C)C(=O)Nc1c(C)c(OC(C)=O)c2c(c1O)C(=O)C(C)=C1OCOC(C(C)=CC(C)=O)=C12 (centres unmarked) [Streptoval C Triacetate-A]
[3]
  % inhibition: 86.2%

## COC(=O)C(C(O)C(C)C=O)C(OC(C)=O)C(C)C(O)C(C)(O)C=C(C)C1=C2C(=C(C)C(=O)c3c(O)c(NC(=O)C(C)=CC=CC(C)=O)c(C)c(OC(C)=O)c32)OCO1 (centres unmarked) [Isostreptoval A]
[1]
  MIC: 80 µg/mL (≈ 96.9 µM)
[2]
  zone of inhibition at 250 µM: 16 mm
[3]
  % inhibition: 7.8%
[4]; 0.1 μmole/ml.
  % inhibition: 21%
[6]
  % inhibition: 10.7%

## COC(=O)C1C(OC(C)=O)C(C)C(O)OC1C(C)C(O)C(C)C=CC=C(C)C(=O)Nc1c(C)c(OC(C)=O)c2c(c1O)C(=O)C(C)=C1OCOC(C(C)=CC(C)=O)=C12 (centres unmarked) [Streptoval B]
[3]
  % inhibition: 99.0%

## COC(=O)C1C(O)C(C)C(O)C(C)C=CC=C(C)C(=O)Nc2c(C)c(OC(C)=O)c3c(c2O)C(=O)C(C)=C2OCOC(=C23)C(C)=CC(C)(O)C(O)C(C)C1O (centres unmarked) [Streptovaricin C, reference compound]
[5]
  % inhibition: 0%
[2]
  zone of inhibition at 250 µM: 22 mm
[3]
  % inhibition: 47.9%
[4]; 0.01 μmole/ml. (Streptovaricin C)
  % inhibition: 66%
[6]
  % inhibition: 8.9%

## COC(=O)C1C(OC(C)=O)C(C)C(OC(C)=O)C(C)C=CC=C(C)C(=O)Nc2c(C)c(OC(C)=O)c3c(c2O)C(=O)C(C)=C2OCOC(=C23)C(C)=CC(C)(O)C(OC(C)=O)C(C)C1OC(C)=O (centres unmarked) [Streptovaricin C Tetra-acetate]
[3]
  % inhibition: 80.0%

## COC(=O)C1C(OC(C)=O)C(C)C(OC(C)=O)C(C)C=CC=C(C)C(=O)Nc2c(C)c(OC(C)=O)c3c(c2O)C(=O)C(C)=C2OCOC(=C23)C(C)=CC(C)(O)C(O)C(C)C1OC(C)=O (centres unmarked) [Streptovaricin C Triacetate]
[3]
  % inhibition: 79.0%

From patent US4076725A, “Derivatives of streptovaricin ansamycins” (University of Illinois Foundation, priority 1976, dated 1978)
